# Test results: patent publication US20030165579A1, “Euphorbia antiquorum extract, a pharmaceutical composition containing the same and methods for treatment of cancers” (priority 2002, published 2003)
# Columns and labels:
# [1] = system: Ehrlich acites tumor cell; conditions: Planta Med. 62, 322-5, 1996; cited from earlier work
# hepatoma = conditions: cited from earlier work
# [2] = system: P-388 lymphocytic leukemia; conditions: mice; cited from earlier work
# U-937 = assay: Cell proliferation assay (MTS) on U-937; assay type: cell-based, Human; conditions: for Cell Growth: positive control
# Experimental: (§1) The ability of extract of Euphorbia antiquorum described in Example 1 to inhibit the growth of five different human tumor cell lines was tested. The activity of Doxorubicin, a currently clinically used chemotherapeutic agent, against the tumor cell lines was tested as a control.
# (§2) Five human tumor cell lines COLO 205, HT-29, U-937, MOLT4 and HA22T/VGH, were tested in this example (Table 3).
# (§3) All five cancer cell lines were stored in liquid nitrogen. After thawing, cells were maintained as monolayer in appropriate medium (GIBCO, USA) supplemented with 10% fetal bovine serum, sodium bicarbonate, L-glutamine (2 mM), streptomycin (100 μg/ml) and penicillin-G (100 units/ml) in a humidified incubator at 37±1° C. and 5% CO2 in air.
# (§4) Exponentially growing human cancer cells were seeded in an appropriate medium in 96-well ELISA microtiter plates. The number of cells for each cell line plated in 96-well plates was determined from the growth curve obtained in MTS assay (600 to 20,000 cells depending on cell line). These plates of adherent cells were incubated overnight. Six well cultures were used for each concentration of MH801 of the invention and for negative and positive control cultures.
# (§5) MH801 was dissolved in culture medium. […] Since the solution prepared in culture medium at working concentration can be used directly rather than a stock solution at 200 fold concentration in DMSO, culture medium, instead of DMSO, was used as vehicle in the present invention. Maximum concentration for this assay was 10 mg/ml. Serial ten fold dilution was used in this invention, and therefore, the concentrations were 10, 1, 0.1, 0.01 and 0.001 mg/ml. After sufficient mixing, this solution was passed through filter of 0.2 μm pore size for sterility. Filtrate was serially diluted with culture medium to desired concentrations for treatment.
# (§6) After three days of culture, the viable cells were counted by changing the culture medium containing a tetrazolium compound
# (§7) (3-4,5-dimethylthiazol-2-yl)-5(3-carboxymethoxyphenyl)-2-(4-sulfophenyl)-2H-tetrazolium, inner salt and an electron coupling reagent to measure mitochondrial enzyme activity. The absorbance at […] was measured after 2 hours to 4 hours reaction time. Cell growth % is calculated using the following equations: [formula]
# (§8) Doxourbicin was used as positive control for assay system evaluation and was prepared in dimethyl sulfoxide (Merck Art. 2931, Germany) as stock solution to be added to culture medium.
# HA22T/VGH = assay: Cell proliferation assay (MTS) on HA22T/VGH; assay type: cell-based, Human; conditions: positive control
# Experimental: as §1, §2, §3, §4, §5, §6, §7, §8
# COLO 205 = assay: Cell proliferation assay (MTS) on COLO 205; assay type: cell-based, Human; conditions: for Cell Growth: positive control
# Experimental: as §1, §2, §3, §4, §5, §6, §7, §8
# HT-29 = assay: Cell proliferation assay (MTS) on HT-29; assay type: cell-based, Human; conditions: for Cell Growth: positive control
# Experimental: as §1, §2, §3, §4
# as §5, with “After sufficient mixing, this solution was passed through filter of 0.2 μm pore size for sterility. Filtrate was serially diluted with culture medium to desired concentrations for treatment.” left out
# as §6
# as §7, with “[formula] […]” for “[formula]”
# tumors = conditions: chemotherapy, tumor control; cited from earlier work
# MOLT 4 = assay: Cell proliferation assay (MTS) on MOLT 4; assay type: cell-based, Human; conditions: for Cell Growth: positive control
# Experimental: as §1, §2, §3, §4, §5, §6, §7, §8
molecule,measurement,setting,value
"9,19-cycloart-23-ene-3 β,24-diol",inhibitory activity against Ehrlich acites tumor cell,[1],significant inhibitory activity
O=c1[nH]cc(F)c(=O)[nH]1 [5-FU],patients responded to the medicine,"hepatoma; 62 hepatoma patients, hepatic intra-arterial infusion",48%
same,"survival, non-responders",hepatoma; hepatoma patients who did not respond,1.8 months
same,"survival in average, responders",hepatoma; hepatoma patients who responded,6.9 months
"CCCCCCCCCCCCCCCC(=O)OC[C@@]12O[C@@H]1[C@@H]1C(=O)[C@]3(C=C(C)[C@H](OC(=O)C(C)C(C)C)[C@@]3(O)[C@@H]2O)[C@H](C)C[C@]2(OC(=O)CCCCCCCCCCC)[C@H]1C2(C)C (stereo partly shown) [6,7-epoxy-13-hydroxyingenol-3-(2,3-dimethylbutanoate)-13 dodecanoate-20-hexadecanoate]",antileukemic activity against P-388 lymphocytic leukemia,[2],antileukemic effect
"CCCCCCCCCCCCCCCC(=O)OCC1=C[C@@H]2C(=O)[C@]3(C=C(C)[C@H](OC(=O)C(C)C(C)C)[C@@]3(O)[C@@H]1O)[C@H](C)C[C@]1(OC(=O)CCCCCCCCCCC)[C@H]2C1(C)C (stereo partly shown) [13-hydroxyingenol-3-(2,3-dimethylbutanoate)-13-dodecanoate-20-hexadecanoate]",antileukemic activity against P-388 lymphocytic leukemia,[2],antileukemic effect
COc1cccc2c1C(=O)c1c(O)c3c(c(O)c1C2=O)C[C@@](O)(C(=O)CO)C[C@@H]3O[C@H]1C[C@H](N)[C@H](O)[C@H](C)O1 [Doxorubicin],Cell Growth,"U-937; U-937, 0.0058 μg/ml",100.5%
same,Cell Growth,"U-937; U-937, 0.058 μg/ml",80.9%
same,Cell Growth,"U-937; U-937, 0.58 μg/ml",3.7%
same,Cell Growth,"U-937; U-937, 5.8 μg/ml",1.6%
same,antiproliferative effect,"U-937; U-937, positive control",very strong antiproliferative effect
same,Cell Growth,HA22T/VGH; 0.0058 μg/ml,103%
same,Cell Growth,HA22T/VGH; 0.058 μg/ml,81.53%
same,Cell Growth,HA22T/VGH; 0.58 μg/ml,38.8%
same,Cell Growth,HA22T/VGH; 5.8 μg/ml,14.4%
same,antiproliferative effect,HA22T/VGH,very strong antiproliferative effect
same,Cell Growth,"COLO 205; COLO 205, 0.058 μg/ml",63.2%
same,Cell Growth,"COLO 205; COLO 205, 0.58 μg/ml",33.8%
same,Cell Growth,"COLO 205; COLO 205, 5.8 μg/ml",8.23%
same,antiproliferative effect,"COLO 205; COLO 205, positive control",very strong antiproliferative effect
same,Cell Growth,"HT-29; HT-29, 1.74 μg/ml",35%
same,Cell Growth,"HT-29; HT-29, 3.48 μg/ml",15.9%
same,antiproliferative effect,"HT-29; HT-29, positive control",very strong antiproliferative effect
same,remission effect,tumors,15-23%
same,Cell Growth,"MOLT 4; MOLT 4, 0.0058 μg/ml",71.2%
same,Cell Growth,"MOLT 4; MOLT 4, 0.058 μg/ml",0%
same,Cell Growth,"MOLT 4; MOLT 4, 0.58 μg/ml",0%
same,Cell Growth,"MOLT 4; MOLT 4, 5.8 μg/ml",0%
same,antiproliferative effect,"MOLT 4; MOLT 4, positive control",very strong antiproliferative effect
"CC1=C[C@]23C(=O)[C@@H](C=C(COC(=O)c4ccccc4)[C@@H](O)[C@]2(O)[C@H]1OC(=O)c1ccccc1)[C@H]1[C@@H](C[C@H]3C)C1(C)C [Ingenol 3,20-debenzoate]",antileukemic activity against P-388 lymphocytic leukemia,[2],antileukemic activity
C/C=C(\C)C(=O)O[C@@H]1[C@@H](C)[C@@]2(O)[C@@H](C=C(CO)C[C@]3(O)C(=O)C(C)=C[C@@H]23)[C@@H]2C(C)(C)[C@]12OC(=O)CCCCCCCCC [phorbol 12-tiglate 13-decanoate],antileukemic activity against P-388 lymphocytic leukemia,[2],antileukemic activity
